From patent US20110092558A1, “NOVEL MICROBIOCIDES” (SYNGENTA CROP PROTECTION, INC., priority 2008, published 2011)

Columns and labels:
[1] = tested on: Pyrenophora teres; assay: Action against Pyrenophora teres (net blotch) on barley leaf segments, preventive; type: in vivo; conditions: foliar, 96 h, barley leaf segments sprayed with 0.02% active ingredient, assessed 4 days after inoculation, read-out: preventive fungicidal activity (inhibition)
Method: (§1) Action Against Pyrenophora teres (Net Blotch) on Barley Barley leaf segments are placed on agar in multiwell plates (24-well format) and sprayed with test solutions (0.02% active ingredient). After drying, the leaf disks are inoculated with a spore suspension of the fungus. After appropriate incubation the activity of a compound is assessed 4 days after inoculation as preventive fungicidal activity. Compounds 1.001, 1.004, 1.052, 1.069, 1.134, 1.171, 1.182 and 1.197 show good activity in this test (at least 50% inhibition).

[2] = tested on: Botrytis cinerea; assay: Action against Botrytis cinerea - fungal growth assay; type: cell-based; conditions: 0.02% active ingredient, PDB nutrient broth, 24° C., measured photometrically after 3-4 days
Method: (§2) Action Against Botrytis cinerea—Fungal Growth Assay Conidia of the fungus from cryogenic storage are directly mixed into nutrient broth (PDB potato dextrose broth). After placing a (DMSO) solution of the test compounds (0.02% active ingredient) into a microtiter plate (96-well format) the nutrient broth containing the fungal spores is added. The test plates are incubated at 24° C. and the inhibition of growth is measured photometrically after 3-4 days. The activity of a compound is expressed as fungal growth inhibition. Compounds 1.001, 1.004, 1.052, 1.134, 1.182 and 1.197 show good activity in this test (at least 50% inhibition).

[3] = tested on: Mycosphaerella arachidis; assay: Action against Mycosphaerella arachidis (early leaf spot of groundnut) - fungal growth assay; type: cell-based; conditions: 0.02% active ingredient, PDB nutrient broth, 24° C., measured photometrically after 6-7 days
Method: as §2, with “Mycosphaerella arachidis (Early Leaf Spot of Groundnut Cercospora Arachidicola [Anamorph])—Fungal” for “Botrytis cinerea—Fungal”, “6-7” for “3-4”, “1.052, 1.069,” for “1.052,”, “1.134, 1.171,” for “1.134,”

[4] = tested on: Septoria tritici; assay: Action against Septoria tritici - fungal growth assay; type: cell-based; conditions: Zymoseptoria tritici; 0.02% active ingredient; PDB nutrient broth, 24° C.; determined photometrically after 72 hrs
Method: as §2, with “Septoria tritici—Fungal” for “Botrytis cinerea—Fungal”, “determined” for “measured”, “72 hrs.” for “3-4 days.”, “1.052, 1.069,” for “1.052,”, “1.134, 1.171,” for “1.134,”

[5] = tested on: Monographella nivalis; assay: Action against Monographella nivalis (snow mould) - fungal growth assay; type: cell-based; conditions: 0.02% active ingredient, PDB nutrient broth, 24° C., measured photometrically after 72 hrs
Method: as §2, with “Monographella nivalis (Anamorph: Fusarium nivale, Microdochium nivale; Snow Mould)—Fungal” for “Botrytis cinerea—Fungal”, “DMSO-solution” for “(DMSO) solution”, “72 hrs.” for “3-4 days. The activity of a compound is expressed as fungal growth inhibition.”, “1.052, 1.069,” for “1.052,”, “1.134, 1.171,” for “1.134,”

[6] = tested on: Erysiphe graminis f.sp. Tritici; assay: Action against Erysiphe graminis f.sp. tritici (wheat powdery mildew), wheat leaf segments, preventive; type: in vivo; conditions: Blumeria graminis, foliar, 168 h; wheat leaf segments sprayed with 0.02% active ingredient; assessed 7 days after inoculation; read-out: preventive fungicidal activity (inhibition)
Method: as §1, with “Against Erysiphe graminis f.sp. Tritici (Wheat Powdery Mildew) Wheat” for “Against Pyrenophora teres (Net Blotch) on Barley Barley”, “assessed 7” for “assessed 4”, “1.134, and” for “1.134, 1.171,”, “1.182” for “1.182 and 1.197”

[7] = tested on: Leptosphaeria nodorum; assay: Action against Leptosphaeria nodorum (Septoria nodorum; glume blotch) on wheat leaf segments, preventive; type: in vivo; conditions: Parastagonospora nodorum, foliar, 96 h; wheat leaf segments sprayed with 0.02% active ingredient; assessed 4 days after inoculation; read-out: preventive fungicidal activity (inhibition)
Method: as §1, with “Leptosphaeria nodorum (Septoria nodorum; Glume” for “Pyrenophora teres (Net”, “Wheat Wheat” for “Barley Barley”, “1.004,” for “1.004, 1.052,”, “and” for “1.171,”, “1.182” for “1.182 and 1.197”

[8] = tested on: Puccinia recondita; assay: Curative action against Puccinia recondita (brown rust) on wheat leaf segments; type: in vivo; conditions: foliar, wheat leaf segments sprayed with 0.02% active ingredient one day after inoculation, assessed 8 days after inoculation, read-out: curative fungicidal activity (inhibition)
Method: Curative Action Against Puccinia recondita (Brown Rust) on Wheat Wheat leaf segments are placed on agar in multiwell plates (24-well format) and inoculated with a spore suspension of the fungus. One day after inoculation the leaf segments are sprayed with test solutions (0.02% active ingredient). After appropriate incubation the activity of a compound is assessed 8 days after inoculation as curative fungicidal activity. Compounds 1.004 and 1.052 show good activity in this test (at least 50% inhibition).

Measured: inhibition at 0.02 % strength

CC(COCc1c(Cl)cccc1Cl)NC(=O)c1cn(C)nc1C(F)F (stereo not shown) [Compound 1.197, 3-difluoromethyl-1-methyl-1H-pyrazole-4-carboxylic acid [2-(2,6-dichloro-benzyloxy)-1-methyl-ethyl]-amide]
≥ 50%: [1] | [2] | [3] | [4] | [5]

CC(CCCc1c(Cl)cc(Cl)cc1Cl)NC(=O)c1cn(C)nc1C(F)F (stereo not shown) [Compound 1.069, 3-difluoromethyl-1-methyl-1H-pyrazole-4-carboxylic acid [1-methyl-4-(2,4,6-trichloro-phenyl)-butyl]-amide]
not listed: [2] | [8]
≥ 50%: all other assays above

CC(CCc1c(Cl)cc(Cl)cc1Cl)NC(=O)c1cn(C)nc1C(F)F (stereo not shown) [Compound 1.004, 3-difluoromethyl-1-methyl-1H-pyrazole-4-carboxylic acid [1-methyl-3-(2,4,6-trichloro-phenyl)-propyl]-amide]
≥ 50%: all assays above
